From the NIST ThermoML archive (doi:10.1021/acs.jced.6b00655)
Where “and” joins values, the source holds several entries; their conditions need not be identical. Equal values may be shown once. ± gives the expanded uncertainty stated by the source.

Tests used:
[1] = xn = mol fraction of the nth substance listed; conditions: 100 kPa, Liquid, Vibrating tube method
[2] = 343.15 K; 100 kPa; Liquid; Vibrating tube method

CCCC[N+]1(C)CCCC1.O=S(=O)([O-])C(F)(F)F [1-butyl-1-methylpyrrolidinium trifluoromethanesulfonate] + c1ccccc1
[1], 283.15 K
Conditions | mass density [kg/m3]
x2 = 0 | 1263.28 ± 10
x2 = 0.047 | 1257.62 ± 10
x2 = 0.095 | 1251.22 ± 10
x2 = 0.199 | 1235.63 ± 10
x2 = 0.293 | 1218.76 ± 10
x2 = 0.405 | 1195.65 ± 10
x2 = 0.503 | 1170.77 ± 10
x2 = 0.601 | 1140.47 ± 10
x2 = 0.644 | 1125.22 ± 11
x2 = 0.675 | 1112.49 ± 11
x2 = 0.701 | 1101.39 ± 11
x2 = 0.718 | 1093.71 ± 11
x2 = 0.738 | 1084.59 ± 11

CCCC[N+](C)(C)C.O=S(=O)([N-]S(=O)(=O)C(F)(F)F)C(F)(F)F [butyltrimethylammonium bis(trifluoromethylsulfonyl)imide]
Conditions | mass density
[2] | 1348.32 ± 10 kg/m3 and 1346.21 ± 10 kg/m3

CCCC[N+](C)(C)C.O=S(=O)([N-]S(=O)(=O)C(F)(F)F)C(F)(F)F [butyltrimethylammonium bis(trifluoromethylsulfonyl)imide] + CCc1ccccc1
[1], 343.15 K
Conditions | mass density [kg/m3]
x2 = 0 | 1348.32 ± 10
x2 = 0.037 | 1345.32 ± 10
x2 = 0.099 | 1330.93 ± 10
x2 = 0.245 | 1295.53 ± 10
x2 = 0.309 | 1271.7 ± 11
x2 = 0.397 | 1243.17 ± 11
x2 = 0.448 | 1221.88 ± 11
x2 = 0.498 | 1201.31 ± 11

CCCC[N+](C)(C)C.O=S(=O)([N-]S(=O)(=O)C(F)(F)F)C(F)(F)F [butyltrimethylammonium bis(trifluoromethylsulfonyl)imide] + Cc1ccc(C)cc1
[1], 343.15 K
Conditions | mass density [kg/m3]
x2 = 0 | 1348.32 ± 10
x2 = 0.056 | 1341.21 ± 10
x2 = 0.096 | 1332.06 ± 10
x2 = 0.196 | 1307.74 ± 10
x2 = 0.307 | 1273.97 ± 11
x2 = 0.414 | 1235.93 ± 11
x2 = 0.486 | 1205.85 ± 11

CCCC[N+](C)(C)C.O=S(=O)([N-]S(=O)(=O)C(F)(F)F)C(F)(F)F [butyltrimethylammonium bis(trifluoromethylsulfonyl)imide] + Cc1cccc(C)c1
[1], 343.15 K
Conditions | mass density [kg/m3]
x2 = 0 | 1348.32 ± 10
x2 = 0.057 | 1340.71 ± 10
x2 = 0.099 | 1330.46 ± 10
x2 = 0.2 | 1304.78 ± 10
x2 = 0.305 | 1274.33 ± 11
x2 = 0.411 | 1235.86 ± 11
x2 = 0.45 | 1222.37 ± 11
x2 = 0.502 | 1201.38 ± 11

CCCC[N+](C)(C)C.O=S(=O)([N-]S(=O)(=O)C(F)(F)F)C(F)(F)F [butyltrimethylammonium bis(trifluoromethylsulfonyl)imide] + Cc1ccccc1
[1], 343.15 K
Conditions | mass density [kg/m3]
x2 = 0 | 1346.21 ± 10
x2 = 0.1 | 1333.19 ± 10
x2 = 0.202 | 1310.32 ± 10
x2 = 0.316 | 1279.85 ± 10
x2 = 0.404 | 1252.66 ± 11
x2 = 0.502 | 1211.78 ± 11
x2 = 0.61 | 1167.51 ± 11
x2 = 0.643 | 1150.47 ± 11

CCCC[N+](C)(C)C.O=S(=O)([N-]S(=O)(=O)C(F)(F)F)C(F)(F)F [butyltrimethylammonium bis(trifluoromethylsulfonyl)imide] + Cc1ccccc1C
[1], 343.15 K
Conditions | mass density [kg/m3]
x2 = 0 | 1348.32 ± 10
x2 = 0.046 | 1343.67 ± 10
x2 = 0.099 | 1331.9 ± 10
x2 = 0.207 | 1306.39 ± 10
x2 = 0.309 | 1276.95 ± 10
x2 = 0.398 | 1246.25 ± 11
x2 = 0.481 | 1213.91 ± 11
x2 = 0.542 | 1191.25 ± 11

CCCC[N+](C)(C)C.O=S(=O)([N-]S(=O)(=O)C(F)(F)F)C(F)(F)F [butyltrimethylammonium bis(trifluoromethylsulfonyl)imide] + c1ccccc1
[1], 343.15 K
Conditions | mass density [kg/m3]
x2 = 0 | 1348.32 ± 10
x2 = 0.096 | 1335.57 ± 10
x2 = 0.2 | 1316.52 ± 10
x2 = 0.308 | 1288.49 ± 10
x2 = 0.414 | 1262.43 ± 10
x2 = 0.512 | 1229.56 ± 11
x2 = 0.613 | 1185.89 ± 11
x2 = 0.762 | 1105.62 ± 11

CCCC[N+](C)(CCCC)CCCC.O=S(=O)([N-]S(=O)(=O)C(F)(F)F)C(F)(F)F [tributylmethylammonium bis((trifluoromethyl)sulfonyl)imide] + CCc1ccccc1
[1], 343.15 K
Conditions | mass density [kg/m3]
x2 = 0 | 1224.15 ± 10
x2 = 0.105 | 1210.81 ± 10
x2 = 0.203 | 1197.48 ± 10
x2 = 0.295 | 1179.85 ± 10
x2 = 0.389 | 1160.38 ± 10
x2 = 0.461 | 1142.53 ± 10
x2 = 0.584 | 1105.8 ± 10
x2 = 0.701 | 1065.88 ± 11
x2 = 0.732 | 1053.69 ± 11

CCCC[N+](C)(CCCC)CCCC.O=S(=O)([N-]S(=O)(=O)C(F)(F)F)C(F)(F)F [tributylmethylammonium bis((trifluoromethyl)sulfonyl)imide] + Cc1ccc(C)cc1
[1], 343.15 K
Conditions | mass density [kg/m3]
x2 = 0 | 1224.15 ± 10
x2 = 0.106 | 1209.82 ± 10
x2 = 0.257 | 1187.07 ± 10
x2 = 0.37 | 1163.42 ± 10
x2 = 0.459 | 1143.06 ± 10
x2 = 0.552 | 1114.23 ± 11
x2 = 0.7 | 1057.46 ± 11

CCCC[N+](C)(CCCC)CCCC.O=S(=O)([N-]S(=O)(=O)C(F)(F)F)C(F)(F)F [tributylmethylammonium bis((trifluoromethyl)sulfonyl)imide] + Cc1cccc(C)c1
[1], 343.15 K
Conditions | mass density [kg/m3]
x2 = 0 | 1224.18 ± 10
x2 = 0.148 | 1203.79 ± 10
x2 = 0.262 | 1185.69 ± 10
x2 = 0.363 | 1165.61 ± 10
x2 = 0.498 | 1130.77 ± 10
x2 = 0.605 | 1095.81 ± 11
x2 = 0.708 | 1059.94 ± 11

CCCC[N+](C)(CCCC)CCCC.O=S(=O)([N-]S(=O)(=O)C(F)(F)F)C(F)(F)F [tributylmethylammonium bis((trifluoromethyl)sulfonyl)imide] + Cc1ccccc1
[1], 343.15 K
Conditions | mass density [kg/m3]
x2 = 0 | 1224.15 ± 10
x2 = 0.055 | 1218.2 ± 10
x2 = 0.104 | 1212.25 ± 10
x2 = 0.199 | 1200.37 ± 10
x2 = 0.303 | 1184.47 ± 10
x2 = 0.411 | 1163.41 ± 10
x2 = 0.586 | 1117.48 ± 11
x2 = 0.799 | 1036.86 ± 11
x2 = 0.84 | 1016.08 ± 11

CCCC[N+](C)(CCCC)CCCC.O=S(=O)([N-]S(=O)(=O)C(F)(F)F)C(F)(F)F [tributylmethylammonium bis((trifluoromethyl)sulfonyl)imide] + Cc1ccccc1C
[1], 343.15 K
Conditions | mass density [kg/m3]
x2 = 0 | 1224.15 ± 10
x2 = 0.152 | 1204.93 ± 10
x2 = 0.26 | 1188.05 ± 10
x2 = 0.365 | 1168.37 ± 10
x2 = 0.506 | 1134.17 ± 10
x2 = 0.623 | 1096.91 ± 11
x2 = 0.751 | 1046.57 ± 11

CCCC[N+](C)(CCCC)CCCC.O=S(=O)([N-]S(=O)(=O)C(F)(F)F)C(F)(F)F [tributylmethylammonium bis((trifluoromethyl)sulfonyl)imide] + c1ccccc1
[1], 343.15 K
Conditions | mass density [kg/m3]
x2 = 0 | 1224.15 ± 10
x2 = 0.048 | 1220.37 ± 10
x2 = 0.097 | 1216.25 ± 10
x2 = 0.198 | 1204.31 ± 10
x2 = 0.294 | 1188.64 ± 10
x2 = 0.393 | 1168.17 ± 10
x2 = 0.506 | 1139.35 ± 10
x2 = 0.596 | 1112.34 ± 11
x2 = 0.701 | 1076.48 ± 11
x2 = 0.738 | 1062.44 ± 11
x2 = 0.774 | 1048.36 ± 11
x2 = 0.801 | 1037.22 ± 11
x2 = 0.823 | 1028.14 ± 11
x2 = 0.85 | 1016.43 ± 11
x2 = 0.865 | 1010.24 ± 11
